Like-named read-outs stand apart in the source and are kept apart here.

Data on three compounds can be found in patent publication US20260176320A1, “MODULATORS OF G-PROTEIN COUPLED RECEPTORS” (priority 2018, published 2026).

For the assay, the target named is GLP-1R (Homo sapiens, UniProt P43220). The assay is described as follows: HitHunter cAMP assay (GLP-1R). In kind it is cell-based. The settings on record: cAMP; for Emax: read-out: (Emax) GLP-1R. On the procedure:
Suspension cells were harvested and resuspended in 1×HBSS (+10 mM HEPES, 625 μM IBMX, 0.2% BSA) according to the following procedure: 5 μL of 2× cell suspension+1× antibody were added to each well, where the optimal cell density was 10,000 cells per well in a low volume 384-well plate. Agonist serial dilutions in a separate 384 well dilution plate in a 22-point series of 2× dilutions of agonist in DMSO were performed as follows. 80 μL of the highest concentration of Agonist/DMSO was added to well No. 1. 40 μL was removed from well No. 1 and added it to well No. 2, followed by gentle mixing. […] This process was repeated until well No. 22. Additional serial dilutions for additional agonists were set up in a similar manner. 50 nL of each 2× agonist serial dilution was added in duplicate to the designated agonist rows of the assay plate using the Labcyte ECHO. Assay plate was incubated for 30 minutes at room temperature. Following agonist incubation, 5 μL of cAMP Antibody Reagent was added to all wells. […] Plates were spun down briefly. Assay plate was incubated for 1 hour at room temperature in the dark for the immunocompetition reaction to occur. […] Plates were spun down briefly. Assay plate was incubated O/N at room temperature in the dark. Samples were read on Tecan i-control plate reader using luminescence mode with 300 ms integration time. Data analysis was performed using GraphPad Prism.
(cAMP levels reflect the balance of adenylyl cyclase and phosphodiesterase activity.)

Setting [1] is: Table 3A, read-out: EC50 GLP-1R/nM.

Sequence of GLP-1R (P43220 24-463): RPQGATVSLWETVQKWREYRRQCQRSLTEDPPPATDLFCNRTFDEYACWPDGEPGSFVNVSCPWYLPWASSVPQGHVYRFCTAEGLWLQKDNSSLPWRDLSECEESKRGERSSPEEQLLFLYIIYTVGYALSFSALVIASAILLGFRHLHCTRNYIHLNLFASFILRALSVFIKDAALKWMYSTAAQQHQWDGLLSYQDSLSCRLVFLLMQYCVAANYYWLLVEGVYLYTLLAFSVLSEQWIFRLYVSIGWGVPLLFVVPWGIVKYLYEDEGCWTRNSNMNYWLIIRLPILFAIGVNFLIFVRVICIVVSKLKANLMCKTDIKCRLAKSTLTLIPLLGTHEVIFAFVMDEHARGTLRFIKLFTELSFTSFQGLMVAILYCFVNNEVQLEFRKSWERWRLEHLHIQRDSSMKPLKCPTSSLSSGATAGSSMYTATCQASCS

Usually Emax stands for the greatest response seen or fitted, relative to the assay's reference. For `CCCCCCCCCCCCCCCC(=O)N[C@@H](CCC(=O)NCCCC[C@H](NC(=O)[C@H](CO)NC(=O)[C@@H]1CCCN1C(=O)[C@@H]1CCCN1C(=O)[C@@H]1CCCN1C(=O)[C@H](C)NC(=O)CNC(=O)[C@H](CO)NC(=O)[C@H](CO)NC(=O)[C@@H]1CCCN1C(=O)CNC(=O)CNC(=O)[C@H](C)NC(=O)[C@H](CC(C)C)NC(=O)[C@H](CC(C)C)NC(=O)[C@H](Cc1c[nH]c2ccccc12)NC(=O)[C@H](CC(N)=O)NC(=O)[C@@H](NC(=O)[C@H](Cc1ccccc1)NC(=O)[C@H](CCC(=O)O)NC(=O)C(C)(C)NC(=O)[C@H](C)NC(=O)[C@H](C)NC(=O)[C@H](CCC(N)=O)NC(=O)[C@H](CCCCN)NC(=O)[C@H](CC(=O)O)NC(=O)[C@H](CC(C)C)NC(=O)[C@H](Cc1ccc(O)cc1)NC(=O)[C@@H](NC(=O)[C@H](CO)NC(=O)[C@H](Cc1ccc(O)cc1)NC(=O)[C@H](CC(=O)O)NC(=O)[C@H](CO)NC(=O)[C@@H](NC(=O)[C@H](Cc1ccccc1)NC(=O)[C@@H](NC(=O)CNC(=O)[C@H](CCC(=O)O)NC(=O)C(=O)NCCN1CCCCC1=O)[C@@H](C)O)[C@@H](C)O)[C@@H](C)CC)C(C)C)C(N)=O)C(=O)O` [Compound 215], the Emax (Table 3A) was found to be 103%. Besides, under setting [1], the EC50 fell in the range of 1 to 10 nM.
The corresponding values for `CCCCCCCCCCCCCCCC(=O)N[C@@H](CCC(=O)NCCCC[C@H](NC(=O)[C@H](CO)NC(=O)[C@@H]1CCCN1C(=O)[C@@H]1CCCN1C(=O)[C@@H]1CCCN1C(=O)[C@H](C)NC(=O)CNC(=O)[C@H](CO)NC(=O)[C@H](CO)NC(=O)[C@@H]1CCCN1C(=O)CNC(=O)CNC(=O)[C@H](C)NC(=O)[C@H](CC(C)C)NC(=O)[C@H](CC(C)C)NC(=O)[C@H](Cc1c[nH]c2ccccc12)NC(=O)[C@H](CC(N)=O)NC(=O)[C@@H](NC(=O)[C@H](Cc1ccccc1)NC(=O)[C@H](CCC(=O)O)NC(=O)C(C)(C)NC(=O)[C@H](C)NC(=O)[C@H](C)NC(=O)[C@H](CCC(N)=O)NC(=O)[C@H](CCCCN)NC(=O)[C@H](CC(=O)O)NC(=O)[C@H](CC(C)C)NC(=O)[C@H](Cc1ccc(O)cc1)NC(=O)[C@@H](NC(=O)[C@H](CO)NC(=O)[C@H](Cc1ccc(O)cc1)NC(=O)[C@H](CC(=O)O)NC(=O)[C@H](CO)NC(=O)[C@@H](NC(=O)[C@H](Cc1ccccc1)NC(=O)[C@@H](NC(=O)CNC(=O)[C@@H](CCc1nn[nH]n1)NC(=O)CSCC(=O)NCCN1CCCCC1=O)[C@@H](C)O)[C@@H](C)O)[C@@H](C)CC)C(C)C)C(N)=O)C(=O)O` [Compound 222] are 99% and 1 to 10 nM.
Take `CCCCCCCCCCCCCCCC(=O)N[C@@H](CCC(=O)NCCCC[C@H](NC(=O)[C@H](CO)NC(=O)[C@@H]1CCCN1C(=O)[C@@H]1CCCN1C(=O)[C@@H]1CCCN1C(=O)[C@H](C)NC(=O)CNC(=O)[C@H](CO)NC(=O)[C@H](CO)NC(=O)[C@@H]1CCCN1C(=O)CNC(=O)CNC(=O)[C@H](C)NC(=O)[C@H](CC(C)C)NC(=O)[C@H](CC(C)C)NC(=O)[C@H](Cc1c[nH]c2ccccc12)NC(=O)[C@H](CC(N)=O)NC(=O)[C@@H](NC(=O)[C@H](Cc1ccccc1)NC(=O)[C@H](CCC(=O)O)NC(=O)C(C)(C)NC(=O)[C@H](C)NC(=O)[C@H](C)NC(=O)[C@H](CCC(N)=O)NC(=O)[C@H](CCCCN)NC(=O)[C@H](CC(=O)O)NC(=O)[C@H](CC(C)C)NC(=O)[C@H](Cc1ccc(O)cc1)NC(=O)[C@@H](NC(=O)[C@H](CO)NC(=O)[C@H](Cc1ccc(O)cc1)NC(=O)[C@H](CC(=O)O)NC(=O)[C@H](CO)NC(=O)[C@@H](NC(=O)[C@H](Cc1ccccc1)NC(=O)[C@@H](NC(=O)CNC(=O)[C@H](CCC(=O)O)NC(=O)CSCC(=O)NCCN1C(=O)CC(C)(C(C)C)C1=O)[C@@H](C)O)[C@@H](C)O)[C@@H](C)CC)C(C)C)C(N)=O)C(=O)O` (mixture of isomers) [Compound 101]: the EC50 reads like this: (EC50 GLP-1R/nM, Table 3) 10 to 100 nM; (EC50 GLP-1R/nM, Table 3A) 10 to 100 nM. The Emax was 92% (Table 3) and 92% (Table 3A).
